According to patent US20180319753A1, “MICROBIOCIDAL OXADIAZOLE DERIVATIVES” (SYNGENTA PARTICIPATIONS AG, priority 2015, published 2018):
Where “and” joins values, the source holds several entries; their conditions need not be identical. Equal entries are not always repeated.

Key:
[1] = test system: Glomerella lagenarium (Colletotrichum lagenarium); test: Glomerella lagenarium (Colletotrichum lagenarium) liquid culture / cucumber / preventative (anthracnose); assay type: cell-based; conditions: Colletotrichum orbiculare; 20 ppm in the applied formulation; liquid culture in PDB, 24° C.; 3 to 4 days after application; read-out: disease control compared to untreated control (inhibition of growth measured photometrically)
Method: Mycelia fragments or conidia suspensions of a fungus prepared either freshly from liquid cultures of the fungus or from cryogenic storage, are directly mixed into nutrient broth. DMSO solutions of the test compound (max. 10 mg/ml) are diluted with 0.025% Tween20 by a factor of 50 and 10 μl of this solution is pipetted into a microtiter plate (96-well format). The nutrient broth containing the fungal spores/mycelia fragments is then added to give an end concentration of the tested compound. The test plates are incubated in the dark at 24° C. and 96% relative humidity. The inhibition of fungal growth is determined photometrically after 2 to 7 days, depending on the pathosystem, and percent antifungal activity relative to the untreated check is calculated.
Conidia of the fungus from cryogenic storage are directly mixed into nutrient broth (PDB—potato dextrose broth). After placing a (DMSO) solution of test compound into a microtiter plate (96-well format), the nutrient broth containing the fungal spores is added. The test plates are incubated at 24° C. and the inhibition of growth is measured photometrically 3 to 4 days after application.
The following compounds at 20 ppm in the applied formulation give at least 80% disease control in this test when compared to untreated control under the same conditions, which show extensive disease development.

Phakopsora pachyrhizi = Phakopsora pachyrhizi / soybean / leaf disc preventative (Asian soybean rust); assay type: in vivo; conditions: foliar, 200 ppm in the applied formulation, soybean leaf disks, inoculated one day after application, assessed 12 to 14 days after application, read-out: disease control compared to untreated control leaf disks
Method: (§1) Leaf disks or leaf segments of various plant species are cut from plants grown in a greenhouse. The cut leaf disks or segments are placed in multiwell plates (24-well format) onto water agar. The leaf disks are sprayed with a test solution before (preventative) or after (curative) inoculation. Compounds to be tested are prepared as DMSO solutions (max. 10 mg/ml) which are diluted to the appropriate concentration with 0.025% Tween20 just before spraying. The inoculated leaf disks or segments are incubated under defined conditions (temperature, relative humidity, light, etc.) according to the respective test system. A single evaluation of disease level is carried out 3 to 14 days after inoculation, depending on the pathosystem. Percent disease control relative to the untreated check leaf disks or segments is then calculated.
Soybean leaf disks are placed on water agar in multiwell plates (24-well format) and sprayed with the formulated test compound diluted in water. One day after application leaf discs are inoculated by spraying a spore suspension on the lower leaf surface. After an incubation period in a climate cabinet of 24-36 hours in darkness at 20° C. and 75% rh leaf disc are kept at 20° C. with 12 h light/day and 75% rh. The activity of a compound is assessed as percent disease control compared to untreated when an appropriate level of disease damage appears in untreated check leaf disks (12 to 14 days after application).
The following compounds at 200 ppm in the applied formulation give at least 80% disease control in this test when compared to untreated control leaf disks under the same conditions, which show extensive disease development.

[2] = test system: Puccinia recondita f. Sp. Tritici; test: Puccinia recondita f. sp. tritici / wheat / leaf disc preventative (brown rust); assay type: in vivo; conditions: foliar, 200 ppm in the applied formulation, wheat leaf segments cv. Kanzler, inoculated 1 day after application, assessed 7 to 9 days after application, read-out: disease control compared to untreated control leaf disks
Method: as §1, with “calculated. Wheat leaf segments cv. Kanzler were placed on agar in multiwell plates (24-well format) and sprayed with the formulated test compound diluted in water. The leaf disks were inoculated with a spore suspension of the fungus 1 day after application. The inoculated leaf segments were incubated at 19° C. and 75% relative humidity (rh) under a light regime of 12 hours light/12 hours darkness in a climate cabinet and the activity of a compound was assessed as percent disease control compared to untreated when an appropriate level of disease damage appears in untreated check leaf segments (7 to 9 days after application). The following compounds at 200 ppm in the applied formulation give at least 80% disease control in this test when compared to untreated control leaf disks under the same conditions, which show extensive disease development.” for “calculated.”

Row | melting point | Compound | inhibition at 20 ppm [1] | pest or weed control at 200 ppm (Phakopsora pachyrhizi) | pest or weed control at 200 ppm [2]
1 | 144 to 149 °C | O=S(=O)(c1ccc(F)cc1)c1ccc(-c2noc(C(F)(F)F)n2)cc1 [Compound 3.9, 3-[4-(4-fluorophenyl)sulfonylphenyl]-5-(trifluoromethyl)-1,2,4-oxadiazole] |  | ≥ 80% | ≥ 80%
2 | 109 to 115 °C | Cc1ccccc1S(=O)(=O)c1ccc(-c2noc(C(F)(F)F)n2)cc1 [Compound 3.17, 3-[4-(o-tolylsulfonyl)phenyl]-5-(trifluoromethyl)-1,2,4-oxadiazole] | ≥ 80% |  | ≥ 80%
3 | 108 to 116 °C | COc1ccc(S(=O)(=O)c2ccc(-c3noc(C(F)(F)F)n3)cc2)cc1 [Compound 3.2, 3-[4-(4-methoxyphenyl)sulfonylphenyl]-5-(trifluoromethyl)-1,2,4-oxadiazole] | ≥ 80% | ≥ 80% | ≥ 80%
4 | 66 to 68 °C | Cc1ccccc1S(=O)(=O)c1ccc(-c2noc(C(F)(F)F)n2)cn1 [Compound 3.18, 3-[6-(o-tolylsulfonyl)-3-pyridyl]-5-(trifluoromethyl)-1,2,4-oxadiazole] | ≥ 80% |  | ≥ 80%
5 | 119 to 123 °C | COc1ccccc1S(=O)(=O)c1ccc(-c2noc(C(F)(F)F)n2)cc1 [Compound 3.10, 3-[4-(2-methoxyphenyl)sulfonyl-phenyl]-5-(trifluoromethyl)-1,2,4-oxadiazole] |  |  | ≥ 80%
6 | 124 to 127 °C and 124 to 129 °C | O=S(=O)(c1ccccc1)c1ccc(-c2noc(C(F)(F)F)n2)cn1 [Compound 3.7, 3-[6-(benzenesulfonyl)-3-pyridyl]-5-(trifluoromethyl)-1,2,4-oxadiazole] | ≥ 80% | ≥ 80% | ≥ 80%
7 | 145 to 151 °C | O=S(=O)(c1ccc(-c2noc(C(F)(F)F)n2)cn1)c1ccccc1F [Compound 3.19, 3-[6-(2-fluorophenyl)sulfonyl-3-pyridyl]-5-(trifluoromethyl)-1,2,4-oxadiazole] | ≥ 80% |  | ≥ 80%
8 | 160 to 166 °C | O=S(=O)(Cc1ccc(-c2noc(C(F)(F)F)n2)cn1)c1ccccc1 [Compound 3.21, 3-[6-(benzenesulfonylmethyl)-3-pyridyl]-5-(trifluoromethyl)-1,2,4-oxadiazole] | ≥ 80% | ≥ 80% | 
9 | 140 to 147 °C | O=S(=O)(c1ccc(-c2noc(C(F)(F)F)n2)cc1)c1ccccc1F [Compound 3.12, 3-[4-(2-fluorophenyl)sulfonylphenyl]-5-(trifluoromethyl)-1,2,4-oxadiazole] | ≥ 80% | ≥ 80% | 

More lines, now with the values behind:

Row | Compound | melting point | inhibition at 20 ppm [1] | pest or weed control at 200 ppm (Phakopsora pachyrhizi) | pest or weed control at 200 ppm [2]
10 | Cc1cc(-c2noc(C(F)(F)F)n2)ccc1[S+]([O-])c1ccccc1 (stereo not shown) [Compound 2.11, 3-[4-(benzenesulfinyl)-3-methyl-phenyl]-5-(trifluoromethyl)-1,2,4-oxadiazole] |  | ≥ 80% | ≥ 80% | ≥ 80%
11 | Fc1ccc(Sc2ccc(-c3noc(C(F)(F)F)n3)cc2)c(F)c1 [Compound 1.10, 3-[4-(2,4-difluorophenyl)sulfanylphenyl]-5-(trifluoromethyl)-1,2,4-oxadiazole] | 72 to 80 °C | ≥ 80% | ≥ 80% | 
12 | [O-][S+](Cc1c(F)cccc1F)c1ccc(-c2noc(C(F)(F)F)n2)cc1 (stereo not shown) [Compound 2.9, 3-[4-[(2,6-difluorophenyl)methyl-sulfinyl]phenyl]-5-(trifluoromethyl)-1,2,4-oxadiazole] | 126 to 130 °C | ≥ 80% | ≥ 80% | 
13 | [O-][S+](c1ccc(-c2noc(C(F)(F)F)n2)cc1)c1ccc(C(F)(F)F)cc1 (stereo not shown) [Compound 2.14, 5-(trifluoromethyl)-3-[4-[4-(trifluoromethyl)phenyl]sulfinylphenyl]-1,2,4-oxadiazole] | 94 to 100 °C | ≥ 80% |  | ≥ 80%
14 | Cc1ccc(C)c([S+]([O-])c2ccc(-c3noc(C(F)(F)F)n3)cc2)c1 (stereo not shown) [Compound 2.7, 3-[4-(2,5-dimethylphenyl)sulfinyl-phenyl]-5-(trifluoromethyl)-1,2,4-oxadiazole] | 103 to 109 °C | ≥ 80% | ≥ 80% | ≥ 80%
15 | Fc1cc(-c2noc(C(F)(F)F)n2)ccc1CSc1ccccc1 [Compound 1.24, 3-[3-fluoro-4-(phenylsulfanylmethyl)phenyl]-5-(trifluoromethyl)-1,2,4-oxadiazole] | 50 to 55 °C | ≥ 80% | ≥ 80% | 
16 | [O-][S+](Cc1ccc(-c2noc(C(F)(F)F)n2)cc1F)c1ccccc1 (stereo not shown) [Compound 2.29, 3-[4-(benzenesulfinylmethyl)-3-fluoro-phenyl]-5-(trifluoromethyl)-1,2,4-oxadiazole] | 116 to 120 °C | ≥ 80% | ≥ 80% | 
17 | [O-][S+](c1ccc(-c2noc(C(F)(F)F)n2)cc1)c1cccc(F)c1 (stereo not shown) [Compound 2.20, 3-[4-(3-fluorophenyl)sulfinylphenyl]-5-(trifluoromethyl)-1,2,4-oxadiazole] | 103 to 111 °C | ≥ 80% | ≥ 80% | ≥ 80%
18 | [O-][S+](c1ccc(-c2noc(C(F)(F)F)n2)cc1)c1c(F)cccc1F (stereo not shown) [Compound 2.16, 3-[4-(2,6-difluorophenyl)sulfinyl-phenyl]-5-(trifluoromethyl)-1,2,4-oxadiazole] | 148 to 155 °C |  | ≥ 80% | ≥ 80%
19 | [O-][S+](c1ccc(-c2noc(C(F)(F)F)n2)cc1)c1ccccc1F (stereo not shown) [Compound 2.18, 3-[4-(2-fluorophenyl)sulfinylphenyl]-5-(trifluoromethyl)-1,2,4-oxadiazole] | 116 to 121 °C | ≥ 80% | ≥ 80% | ≥ 80%
20 | Fc1cc(CSc2ccccc2)ccc1-c1noc(C(F)(F)F)n1 [Compound 1.25, 3-[2-fluoro-4-(phenylsulfanylmethyl)phenyl]-5-(trifluoromethyl)-1,2,4-oxadiazole] | 48 to 54 °C | ≥ 80% | ≥ 80% | 
21 | [O-][S+](Cc1ccc(-c2noc(C(F)(F)F)n2)cc1)c1ccccc1F (stereo not shown) [Compound 2.17, 3-[4-[(2-fluorophenyl)sulfinylmethyl]phenyl]-5-(trifluoromethyl)-1,2,4-oxadiazole] | 108 to 118 °C | ≥ 80% | ≥ 80% | 
